# A melting point compilation (Tetko et al.; mined from patent text by program, amines drawn as free bases though some values may be those of a salt)
row,Structure (SMILES),melting point
1,COc1cc2cc3c(Nc4ccc(Sc5nccn5C)c(Cl)c4)c(C#N)cnc3cc2cc1O,> 300 °C
2,CCCC(=O)OC1(C(=O)COC(=O)CC)CCC2C3CC(C)C4=CC(=O)C=CC4(C)C3C(O)CC21C (stereo not given),126 °C
3,COc1ccc(Cl)cc1C(=O)NS(=O)(=O)c1ccc(C(=O)Cl)cc1,138 to 140 °C
4,Cc1oc(-c2ccc(OCC(F)(F)F)cc2)nc1COc1ccc(CN(O)C(N)=O)cc1,159 to 161 °C
5,COC(=O)C1=CCC(=C2CCC3=C(N=C(C(C)C)C(C(C)C)N3)C2=O)C=C1 (stereo not given),100 to 102 °C
6,O=C(CC(O)=S)c1ccccc1,103 to 105 °C
7,CNS(=O)(=O)C(C)C(=O)C=C(C)N (stereo not given),140 to 143 °C
8,CN1CC(=O)Nc2ccncc2C1=O,267 to 268 °C
9,CC(C)(F)Cn1c(N)nc2c(N)nc3ccccc3c21,251 °C
10,COc1ccc2ccc(OS(=O)(=O)C(F)(F)F)cc2c1,34 °C
11,COc1ccc2c(c1OC)CC[C@H]1[C@H]2CCCN1CCc1ccccc1 (relative stereo),110 to 111 °C
12,COCCN(CCOC)Cc1nc(-c2ncn3c2[C@@H]2CCN2C(=O)c2c(Cl)cccc2-3)no1,188 to 190 °C
13,Fc1cccc(Cn2ncc3cc(Nc4ncnc5cnc(F)cc45)ccc32)c1,218 to 221 °C
14,N#Cc1cnn(-c2ccc(Cl)cc2Cl)c1NN,199 to 204 °C
15,Clc1cc2nc3c4ccccc4c4ccccc4c3nc2cc1Cl,263 to 264 °C
16,COc1ccc2[nH]c(/C(=C/c3ccccc3)c3ccccc3)cc2c1,144 to 147 °C
17,CC(=Cc1ccc([N+](=O)[O-])cc1)C(=O)Oc1ccc(Cl)cc1,111 to 112 °C
18,NS(=O)(=O)c1ccc(C2=C(c3ccc(F)c(Cl)c3)CCC2)cc1,150 to 152 °C
19,CCCCCCCCCOC1C(O)C(CO)OC1n1cnc2c(=O)[nH]c(NC(=O)C(C)C)nc21 (stereo not given),168 to 169 °C
20,Fc1ccc2c(c1F)OCCN2,48 to 54 °C
21,O=[N+]([O-])c1ccc(O)c(C(F)(F)F)c1,103 to 104 °C
22,COc1nc(=O)c(Cc2ccc(C)nc2)c[nH]1,145 to 147 °C
23,CC(C)NC(=O)CCCCCCI,46 to 51 °C
24,CC(=O)Nc1ccc(OCCCOc2ccc(Cl)c(Cl)c2)cc1,135 to 137 °C
25,COC(=O)CNC(=O)n1ccc(O)cc1=O,124 to 126 °C

row,Structure (SMILES),melting point
1,Nc1ccc(C(CC2CCCC2)C(=O)O)cc1 (stereo not given),167 to 169 °C
2,Cc1nncn1-c1ccc(Cl)cc1C(=O)c1ccccc1Cl,148 °C
3,COc1ccc(-c2[nH]c(-c3ccncc3)c(C)c2C(C)=O)cc1,185 to 186 °C
4,CC(=O)SCCNC(=O)[C@H](CS)NC(=O)C(C)C,117 to 120 °C
5,CCCOc1ccc(S(C)(=O)=O)cc1C(=O)Nc1c(CC)n[nH]c1C(N)=O,209 to 210 °C
6,C=CCc1c(O)ccc2c1CCCC2=O,145 to 148 °C
7,CCOCOC1(C(=O)CO)C(C)CC2C3CC(C)C4=CC(=O)C=CC4(C)C3C(O)CC21C (stereo not given),100 to 102 °C
8,CC(=O)N1CCc2cc([N+](=O)[O-])cc(C#N)c21,245 to 255 °C
9,CCOCc1ccc2oc(C(=O)OCC)c(C)c2c1O,97 to 98 °C
10,CCOc1cc2c(O)c(C)cnc2nc1C,238 to 242 °C
11,Cc1nn(-c2c(Cl)cc(S(=O)(=O)C(F)(F)F)cc2Cl)nc1-c1nc(C#N)c(C#N)[nH]1,244 to 245 °C
12,CCCc1nnc(/C=C/c2nc(-c3ccccc3)oc2COc2ccc(OCc3nc(-c4ccccc4)oc3C)cc2)o1,119 to 120 °C
13,O=c1c2cccnc2sc(=Nc2ccc(C(F)(F)F)cc2)n1Cc1ccccc1,126 to 128 °C
14,Cc1[nH]cnc1CNC(=N)NC#N,216 to 221 °C
15,Cc1nn(-c2cc(OC(C)C)c(Cl)cc2F)c(=O)[nH]1,120 to 124 °C
16,C#CCCCCCCCCC(c1ccc(Cl)cc1)C1(S(=O)(=O)c2ccc(OC)cc2)SC(=O)NC1=O (stereo not given),114 to 121 °C
17,CCCn1nnn(-c2cc(Cl)c(Cl)cc2Cl)c1=O,89 to 90 °C
18,CS(=O)(=O)OCCCCCCNc1ccc2nncn2n1,103 to 105 °C
19,CCOC(=O)c1c(CN(CCC(C)C)CCC(C)C)nc2cc(OC)c(OC)cc2c1-c1ccc(OC)c(OC)c1,114 to 115 °C
20,CC(Cn1ncc2ccc3c(c21)NC(=O)CO3)NC(=O)OC(C)(C)C (stereo not given),147 to 148 °C
21,COc1cc2[nH]c3c(OC)c(OC)ccc3c2cc1OC,170 to 171 °C
22,CCOC(=O)C=C(C)NC(=O)Nc1cc(OC(C)C)c(Cl)cc1F,142 to 144 °C
23,O=C(CC(=O)C(F)(F)F)c1ccc(Cl)cc1,66 to 67 °C
24,O=C(O)C(F)c1ccc(Cl)cc1 (stereo not given),66 to 68 °C
25,CS(=O)c1ccc(-n2cnc3ccc(-c4nnc(CC(F)(F)F)o4)cc32)cc1 (stereo not given),184 to 185 °C

# Second part, the compound after the results:
row,melting point,Structure (SMILES)
1,145 to 147 °C,O=C(CC(Cc1ccccc1)(C(=O)O)C(=O)O)c1cccc(C(F)(F)F)c1
2,142 to 146 °C,O=C1c2cc(O)ccc2OCC1Oc1ccccc1 (stereo not given)
3,68 to 70 °C,CCOC(=O)CCc1cc(C(=O)c2cccc(C(=O)OCC)c2)ccc1O
4,189 to 191 °C,O=[N+]([O-])c1cccc2[nH]c3c(c12)CCCCCC3
5,138 to 140 °C,CC(=O)OC12Oc3cc(C(C)C)ccc3C1(OC(C)=O)C(=O)c1ccccc12 (stereo not given)
6,175 to 176 °C,CCOC(=O)C1=C(COC2CCNCC2)NC(C)=C(C(=O)OC)C1c1ccccc1Cl (stereo not given)
7,198 to 200 °C,CCCN1CCC(c2ccc(C(=O)NC3(C(=O)NCC#N)CCCCC3)cc2)CC1
8,247 °C,CC1Cc2nc(-c3ccccc3)[nH]c(=O)c2CC1S(=O)(=O)c1ccccc1 (stereo not given)
9,88 °C,CCOC(=O)CCCn1c(=O)[nH]c2ccccc21
10,87 to 88.5 °C,CN(C)C=C1C(=O)N(c2cccc(F)c2)c2ccccc21
11,159 to 160 °C,CCOC(=O)c1cc(NCc2ccccc2)c(Nc2ccc(C)cc2)c(S(N)(=O)=O)c1
12,115 °C,CN1CCc2c(CO)csc2C(c2ccccc2)C1 (stereo not given)
13,238 °C,CN(C)C(=O)Nc1c(C(=O)c2occc2CO)[nH]c2cc(Cl)ccc12
14,163 to 165 °C,O=C(O)C(=O)c1ccc(OCCCCc2cccnc2)cc1
15,189 to 190 °C,O=C(N1C=CC2=C(CCC=C2)c2ccccc21)n1ccnc1
16,157 °C,Cc1nn(-c2ccc(F)cc2)cc1C(=O)N(CC(=O)O)c1ccc(OCC(C)(C)C)c(C#N)c1
17,80 °C,COC(=O)[C@@H]1CCN1S(=O)(=O)c1ccc(Cl)c(COc2cccc3c(-n4ccnc4)cc(C)nc23)c1Cl
18,186 to 188 °C,c1ccc2c(c1)Nc1cc(-c3csc(CN4CCCCC4)n3)ccc1S2
19,75 to 85 °C,CCOC(=O)c1ccc(S(=O)(=O)Oc2c(-c3ccccc3)cc(C(=O)c3ccccc3)cc2-c2ccccc2)cc1O
20,143 to 144 °C,CC(O)c1cc2c(OCC(O)CN3CCC(c4ccc5ccccc5c4)CC3)cccc2o1 (stereo not given)
21,80.5 to 81.5 °C,OC1CCc2c(-c3ccccc3)cccc21 (stereo not given)
22,156 to 157 °C,CCC(CC)c1ccc(Cl)c2nc3n(c12)CCCCN3c1cnc(N(C)C)cc1C
23,99 to 106 °C,CCC(=O)OCCSCC(=O)NC/C=C\COc1cc(CN2CCCCC2)ccn1
24,205 to 207 °C,Cc1ccc(S(=O)(=O)N2CCC(NC(=O)Nc3ccc(OC(F)(F)F)cc3)CC2)cc1
25,240 to 242 °C,Nc1nnc(-c2ccccc2Cl)c(-c2ccccc2Cl)n1

row,melting point,Structure (SMILES)
1,134 to 136 °C,Oc1cccc2c1CCC2N1CCCCC1 (stereo not given)
2,106 to 110 °C,O=C(CN(CCOCc1ccccc1)Cc1ccccc1)Nc1ccc2c3c(nn2CCN(CCOCc2ccccc2)Cc2ccccc2)-c2cc(O)ccc2Oc13
3,210 to 213 °C,Cc1[nH]c2ccc(S(=O)(=O)c3ccccc3)cc2c1CCNC(=O)OC(C)(C)C
4,235 to 237 °C,CC(c1oc2ccccc2c(=O)c1-c1cccc(F)c1)n1nc(-c2ccc(F)cc2O)c2c(N)ncnc21 (stereo not given)
5,174 °C,O=C1Nc2ccccc2C(=O)N2CCCC12 (stereo not given)
6,158 to 159 °C,CCOC(=O)c1c(C)cc2nc(COC(N)=O)n(-c3ccccc3C(F)(F)F)c(=O)c2c1C
7,177 to 180 °C,COc1ccc(N2CCN(c3cc4c(cc3-c3cccnc3)OC(C)(C)C4)CC2)cc1
8,87 to 90 °C,O=C(O)CCCC(c1ccccc1)c1ccccc1
9,202 °C,Cn1ccc2c1CCn1ccnc1C2=C1CCN(CCNc2ncccn2)CC1
10,> 325 °C,N#Cc1ccc2c(c1)C(c1ncnc3nn(C4CCCCC4)cc13)C(=O)N2 (stereo not given)
11,136 to 139 °C,CCCCOCCOc1ccc(-c2ccc(N3CCC(C)C3)c(C=CC(=O)O)c2)cc1 (stereo not given)
12,193 to 195 °C,Cc1ccc(Sc2cncc3sc(C(N)=O)cc23)c(C)c1
13,84 to 88 °C,CN1c2cscc2C(=O)N(CCN2CCCCC2)c2ccccc21
14,89.5 to 90.5 °C,OC(c1ccccc1)(c1ccccc1)C1CCN(Cc2ccccc2)CC1
15,207 to 210 °C,COc1ccc(S(=O)(=O)N(Cc2ccccc2)c2c(C(=O)O)cnc3c2c(C)nn3-c2ccccc2)cc1
16,170 to 172 °C,COC(=O)C1=C(C)NC(C)=C(C(=O)OCC2CCCO2)C1c1ccccc1Br (stereo not given)
17,179 to 180 °C,COc1ccc(-n2ccc(=O)c(-c3ccnn3-c3ccccc3)n2)cc1
18,121 to 122 °C,CCCCC(=O)OCC(=O)C12OCOC1CC1C3CCC4=CC(=O)C=CC4(C)C3C(O)CC12C (stereo not given)
19,178 to 180 °C,Cc1nc2c(N)nc3ccc(OCc4ccccc4)cc3c2n1CCCCNC(=O)N1CCOCC1
20,132 to 134 °C,CC(=O)c1ccc(OCc2ccsc2)cc1OC(CCc1ccccc1C#N)C(=O)O (stereo not given)
21,73 to 74 °C,CCCc1cc2c(cc1O)CCO2
22,74 to 75 °C,C=CCCC(O)C(C)(C)N1COC(C)=C(c2ccccc2)C1=O (stereo not given)
23,179 to 181 °C,O=C1c2ccccc2S(=O)(=O)N1CCCCN1CCN(c2cc(O)cc3c2OCCO3)CC1
24,146 to 147 °C,CCCNC(=O)CCn1ccc(=O)c(OCc2ccccc2)c1C
25,214 to 215 °C,CCCCNC(=S)NC(Cc1ccccc1)C(=O)Nc1c(C(C)C)cccc1C(C)C (stereo not given)
